Data on one molecule can be found in US9593097B2, “Axl inhibitors” (Pfizer Inc., priority 2014, dated 2017).

The structures appear in SMILES notation.

Assay [1] concerns the target Axl phosphorylation in 293MSR-AxlWT6 cells (Homo sapiens (Human), UniProt P30530). The assay can be described thus: Cellular Axl phosphorylation ELISA assay (Gas6-stimulated 293MSR-AxlWT6 cells). To be noted: Table 4B, read-out: CELL AXL IC50. The assay is classed as cell-based. The essentials: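 Phospho-Axl was quantified by sandwich ELISA (anti-Axl capture, anti-phosphotyrosine-HRP detection, TMB, OD 450 nm). IC50 came from four-parameter concentration-response fits.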
A general note: In an ELISA, binding on a coated surface is turned into a signal by an enzyme label.

Assay [2] deals with Human wild-type receptor tyrosine kinase protein Axl (residues 505-811) (Homo sapiens (Human), UniProt P30530). The settings on record: read-out: ENZYME AXL KI; Table 4B.
Sequence of Human wild-type receptor tyrosine kinase protein Axl (residues 505-811) (P30530 505-811): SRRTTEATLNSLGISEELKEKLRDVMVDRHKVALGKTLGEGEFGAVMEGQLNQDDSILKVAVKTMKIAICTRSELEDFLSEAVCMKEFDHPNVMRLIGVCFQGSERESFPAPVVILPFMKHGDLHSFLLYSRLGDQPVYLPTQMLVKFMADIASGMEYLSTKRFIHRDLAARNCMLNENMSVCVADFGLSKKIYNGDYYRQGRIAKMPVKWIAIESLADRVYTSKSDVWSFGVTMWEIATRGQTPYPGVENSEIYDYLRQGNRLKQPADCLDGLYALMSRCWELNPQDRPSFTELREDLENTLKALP

Sequence of Axl phosphorylation in 293MSR-AxlWT6 cells (P30530 26-894): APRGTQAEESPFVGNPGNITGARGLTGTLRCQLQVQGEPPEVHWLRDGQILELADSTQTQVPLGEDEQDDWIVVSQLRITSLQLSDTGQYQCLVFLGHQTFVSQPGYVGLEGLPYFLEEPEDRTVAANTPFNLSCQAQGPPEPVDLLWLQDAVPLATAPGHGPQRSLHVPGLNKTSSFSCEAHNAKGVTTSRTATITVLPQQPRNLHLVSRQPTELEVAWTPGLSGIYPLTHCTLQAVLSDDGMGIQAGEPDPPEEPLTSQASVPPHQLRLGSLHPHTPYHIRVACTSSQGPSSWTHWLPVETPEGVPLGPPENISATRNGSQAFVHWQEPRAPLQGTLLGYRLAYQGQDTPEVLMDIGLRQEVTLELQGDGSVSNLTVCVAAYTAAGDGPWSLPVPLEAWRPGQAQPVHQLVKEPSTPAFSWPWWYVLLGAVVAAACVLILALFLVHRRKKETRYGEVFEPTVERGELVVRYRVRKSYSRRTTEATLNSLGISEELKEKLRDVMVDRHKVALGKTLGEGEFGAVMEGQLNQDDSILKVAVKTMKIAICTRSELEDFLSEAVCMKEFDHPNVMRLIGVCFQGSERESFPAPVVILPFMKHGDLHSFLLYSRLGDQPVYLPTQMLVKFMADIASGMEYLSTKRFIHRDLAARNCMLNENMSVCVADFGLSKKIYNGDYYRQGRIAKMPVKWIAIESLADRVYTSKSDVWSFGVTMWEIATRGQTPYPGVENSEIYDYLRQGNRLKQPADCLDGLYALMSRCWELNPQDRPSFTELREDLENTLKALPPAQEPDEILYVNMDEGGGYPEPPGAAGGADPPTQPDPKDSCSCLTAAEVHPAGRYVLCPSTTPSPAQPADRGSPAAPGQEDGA

With `COc1ccnc2[nH]cc(C3CCN(c4cc(C(=O)N[C@H](C)CO)nc(OCC5(C#N)CC5)n4)CC3)c12` [Example 387, 2-[(1-cyanocyclopropyl)methoxy]-N-[(2R)-1-hydroxypropan-2-yl]-6-[4-(4-methoxy-1H-pyrrolo[2,3-b]pyridin-3-yl)piperidin-1-yl]pyrimidine-4-carboxamide], the half-inhibitory concentration (IC50) – broadly, the concentration that inhibits the measured activity by half – in assay [1] amounted to 0.152 nM. For the same molecule, the Ki (usually the dissociation constant of the complex between target and ligand, obtained from inhibition or displacement) in assay [2] is below 0.018 nM.
